In patent US8993626B2, “Methods of treatment using sterculic acid” (The United States of America, as represented by the …, priority 2010, dated 2015):

What was measured:
[1] = test system: ARPE-19 cells; assay: Fatty acids against 7KCh-mediated cell death (CCK8); format: cell-based; details: 12 μM 7KCh for 24 hr; tested 0.1, 0.5, 1, 5 and 10 μM
Description: FIGS. 12A-12C depict ARPE-19 cell viability in response to 12 μM 7KCh with or without 0.1-5 μM (A) sterculic acid and (B) stearic acid after 24 hr treatments. Error bars indicate the standard deviations. n=3-5. Two-tailed Student's t-test. (C) Representative images of changes in cell morphology in response to 12 μM 7KCh with or without 1 μM sterculic acid and stearic acid after 24 hr treatments.
(§1) ARPE-19 cells were seeded in 24-well plates with 1×10^5 cells per well and allowed to recover for 16-24 hr. Once confluency reached approximately 90%, the effect of the fatty acids against 7KCh-mediated cell death was examined 24 hr after incubation in serum-free medium with 12 μM 7KCh. Fatty acids were tested at 0.1, 0.5, 1, 5 and 10 μM concentrations. The effects of the fatty acids against 7KCh-mediated inflammation and ER stress were examined by incubating cells in 1 μM fatty acids with either 8 μM 7KCh (24 hr for quantitative real-time PCR (qRT-PCR), 24 and 48 hr for immunoblot), or 6 μM 7KCh for 48 hr (for ELISA). Three individual experiments were performed for each treatment with quadruplicate measurements performed for each experiment in 24-well plates.
The cell viability was determined by the dehydrogenase activity of the ARPE-19 cells using Cell Counting Kit-8 (CCK8, Dojindo, Gaithersburg, Md.) according to manufacturer's protocol.
The lowest effective concentrations of fatty acids that offset the 7KCh-mediated cell death were determined. […] Table 3 lists the lowest concentrations of these fatty acids required to maintain full cell viability against 12 μM 7KCh treatment. All unsaturated fatty acids protected against 7KCh-induced cell death. […] DHA, α-linolenic, and linoleic acid prevented 7KCh-mediated cell death at 5 μM but the rest of unsaturated fatty acids and dihydrosterculic acid required 10 μM to be protective.

[2] = test system: ARPE-19 cells; assay: qRT-PCR of cytokines in TNF-α treated cells; format: cell-based; details: 24 hr
Description: FIGS. 17A-17D depict the mRNA expressions of (A) IL-1β, (B) IL-8, (C) IκBα, and (D) GRP78 in response to 2 ng/ml TNF-α, 1 μM sterculic acid, 1 μM stearic acid, or the combinations of TNF-α with either sterculic acid or stearic acid. n=3. Error bars indicate the standard deviations.
Tumor necrosis factor-alpha (TNF-α, Roche Diagnostics, Indianapolis, Ind.) was diluted in PBS to make 10 μg/ml stock solution and stored at −20° C. In order to test the anti-inflammation effect of fatty acids against TNF-α, ARPE-19 cells were treated with 2 ng/ml of TNF-α for 24 hr in serum-free medium with or without 1 μM fatty acids. The mRNA expressions of cytokines were then examined using qRT-PCR. Each treatment was performed three times with quadruplicate measurements in each experiment, in 24-well plates.
(§2) The RNA was extracted using RNeasy Mini Kit (Qiagen, Valencia, Calif.). The reverse transcription was performed with reagents and kits from Invitrogen. Quantification of mRNA expression was performed using the Taqman gene expression assays and the following primers (VEGFa, Hs00173626_m1; IL-1β, Hs01555413_m1; IL-6, Hs00174131_m1; IL-8, Hs00174103_m1; IκBα, Hs00153283_m1; GRP78, Hs99999174_m1; CHOP, Hs01090850_m1; NOX2, Hs00166163_m1; NOX4, Hs01558199_m1; SCD, Hs00748952 s1; TNF-α, Hs00174128_m1; TGF-β1, Hs00998133_m1; GAPD, 4352934e). GAPD expression was used as an endogenous standard. All qRT-PCR experiments were measured in triplicates in an ABI 7500 Real-Time PCR Instrument (Applied Biosystems, Foster City, Calif.). The results of each treatment were normalized and presented in percentage relative to the vehicle-only control.

[3] = test system: ARPE-19 cells; assay: qRT-PCR of inflammatory cytokines and ER stress markers, 7KCh-mediated inflammation; format: cell-based; details: 24 hr; for effect on 7KCh-mediated mRNA induction (inflammatory response): 1 μM fatty acid + 8 μM 7KCh, FIG. 13; for VEGF mRNA expression / IL-6 mRNA expression / GRP78 mRNA expression / CHOP mRNA expression: 8 μM 7KCh alone or with 1 μM fatty acid; for VEGF mRNA expression: FIG. 13A; for IL-6 mRNA expression: FIG. 13B; for GRP78 mRNA expression: FIG. 13C; for CHOP mRNA expression: FIG. 13D
Description: FIGS. 13A-13D depict mRNA expressions of (A) VEGF, (B) IL-6, (C) GRP78, and (D) CHOP in response to 8 μM 7KCh with or without 1 μM long-chain fatty acids. Error bars indicate the standard deviations. *p<0.05 comparing to 7KCh, n=3. Two-tailed Student's t-test.
(§3) FIGS. 14A-14D depict mRNA expressions of (A) VEGF, (B) IL-1b, (C) IL-6, and (D) IL-8 in response to 8 μM 7KCh, 1 μM sterculic acid, 1 μM stearic acid, or the combinations of 7KCh with either sterculic acid or stearic acid. Error bars indicate the standard deviations. *p<0.05 comparing to 7KCh, n=4. Two-tailed Student's t-test.
as §3, with “15A-15D” for “14A-14D”, “TNF-α,” for “VEGF,”, “TGF-β1,” for “IL-1b,”, “GRP78,” for “IL-6,”, “CHOP” for “IL-8”, “n=3-4.” for “n=4.”
as §1, §2

[4] = test system: ARPE19 cells; assay: CellTiter-Glo luminescent cell viability assay, 15 μM 7KCh-induced cytotoxicity; format: cell-based, human; details: 1 μM fatty acid + 15 μM 7KCh, 24 hr, CellTiter-Glo
Description: Error bar: standard deviation, n=4.
CellTiter-Glo® Luminescent Cell Viability Assay is a homogeneous method of determining the number of viable cells in culture based on quantitation of the ATP (luminescent signal) present, an indicator of metabolically active cells.
The contents in a plate were mixed for 2 min on an orbital shaker to induce cell lysis.
5) The plate was allowed to incubate at room temperature for 10 min to stabilize luminescent signal.

[5] = test system: ARPE19 cells; assay: Phase-contrast images of cells after co-treatment with 15 μM 7KCh; format: cell-based, human; details: 1 μM fatty acid + 15 μM 7KCh, 24 hr
Text: FIG. 8 depicts phase-contrast images of ARPE19 cells at 24 hr after sterculic acid co-treatment with 7KCh.

[6] = test system: ARPE19 cells; assay: Cell Counting Kit-8 viability assay, 15 μM 7KCh-induced cytotoxicity; details: 1 μM fatty acid + 15 μM 7KCh, 24 hr, CCK-8
Description: 4×10^4 cells were seeded onto wells of a 96 well plate. […] Cell viability was determined as celluar dehydrogenase activity and expressed as the percentage of compound treated cells relative to that of untreated controls. error bar: standard deviation, n=4.
The kit allows sensitive colorimetric assays for the determination of the number of viable cells in cell proliferation and cytotoxicity assays. The amount of the formazan dye generated by the activity of dehydrogenases in cells is directly proportional to the number of living cells.
1) Cells were cultivated in a 96 well cell plate (Costar#3599, Corning Incorp, Corning, N.Y.).
2) The cell suspension (40,000 cells/100 μL) were added to 100 μL culture media per well and stood for 15 min at room temperature and cultured at 37° C. in a humidified 5% CO2 atmosphere.
3) Approximately 19 hr after seeding, when the cells were fully confluent, the cells were treated with either DMSO or 1 μM fatty acid in 200 μL of serum free media and subsequently added with 15 μM 7KCh in HPBCD. Then, the plate was swirled for mixing. The cells were also treated with DMSO and HPBCD, which served as vehicle control. The final DMSO and HPBCD concentrations in the media were in the range of 0.1% and 0.0675%, respectively.
Cell viability was expressed as the percentage of compound treated cells relative to that of untreated controls. Prior to measure cell viability, the cells were imaged live by Nikon TE 2000-U inverted fluorescent microscope.

[7] = test system: ARPE19 cells; assay: 7-ketocholesterol-mediated cytotoxicity, 24-well CCK-8 viability and images; details: 24 hr

In the case of `CC/C=C\C/C=C\C/C=C\C/C=C\C/C=C\C/C=C\CCC(=O)O` [docosahexaenoic acid], the “CONC. (μM): lowest concentration required to maintain full cell viability against 7KCh” value (from here on “CONC. (μM)”) [1] is reported as 5 µM.
For TNF-α, the “induction of GRP78 mRNA expression” value ([2]; 2 ng/ml TNF-α alone or with 1 μM fatty acid, FIG. 17D) was 2.5 fold, the “induction of IL-1β mRNA expression” value ([2]; 2 ng/ml TNF-α) was 9 fold and the “induction of IL-8 mRNA expression” value ([2]; 2 ng/ml TNF-α) was 8 fold. The “induction of IκBα mRNA expression” value ([2]; 2 ng/ml TNF-α) was 3 fold.
In the case of `CCCCC/C=C\C/C=C\C/C=C\C/C=C\CCCC(=O)O` [arachidonic acid, Arachidonic acid], the “CONC. (μM)” value [1] is reported as 10 µM and the “effect on 7KCh-mediated mRNA induction (inflammatory response)” value [3] is reported as “either ineffective or enhanced”.
`CCCCC/C=C\C/C=C\CCCCCCCC(=O)O` [linoleic acid] was tested, and the “CONC. (μM)” value [1] was 5 µM and the “effect on 7KCh-mediated mRNA induction (inflammatory response)” value [3] was “either ineffective or enhanced”.
For `CC/C=C\C/C=C\C/C=C\CCCCCCCC(=O)O` [α-linolenic acid], the “CONC. (μM)” value [1] was 5 µM, the “VEGF mRNA expression” value [3] was “essentially ineffective” and the “IL-6 mRNA expression” value [3] was “somewhat effective”. For the same molecule, the “GRP78 mRNA expression” value [3] was “somewhat effective” and the “CHOP mRNA expression” value [3] was “somewhat effective”.
For `CCCCCCCC[C@@H]1C[C@@H]1CCCCCCCC(=O)O` [dihydrosterculic acid, Dihydrosterculic acid], the “increase of cell viability compared to 7KCh alone treatment” value [4] was 20%, the “cell morphological changes compared to 7KCh alone” value [5] was “more cells compared to 7KCh alone” and the “CONC. (μM)” value [1] was 10 µM. The “VEGF mRNA expression” value [3] was “essentially ineffective”, the “IL-6 mRNA expression” value [3] was “somewhat effective” and the “GRP78 mRNA expression” value [3] was “somewhat effective”. For the same molecule, the “CHOP mRNA expression” value [3] was “somewhat effective”, the “increase of cell viability compared to 7KCh alone treatment” value [6] was 20% and the “protection of cell confluency and morphology (images)” value ([7]; 0.5 μM co-treatment with 12 μM 7KCh) was “no effect”. The “protection of cell confluency and morphology (images)” value ([7]; 1 μM co-treatment with 12 μM 7KCh) was “slight effect” and the “protection of cell confluency and morphology (images)” value ([7]; 1 μM co-treatment with 12 μM 7KCh, listed as Dihydrosterculic acid) was “do not have such protection effect”.
